This passage reports IC50 results from US10117864B2, “Substituted N-bicyclo-2-aryl-quinolin-4-carboxamides and use thereof” (BAYER PHARMA AKTIENGESELLSCHAFT, priority 2015, dated 2018).

Each structure is given as a SMILES string.

For this assay, the target named is human FP receptor (Homo sapiens (Human), UniProt P43088). The experiment in a line: In vitro test of inhibition of human FP receptor activity (PGF2α-induced calcium flux in FP-expressing CHEM1 cells). Conditions: PGF2α-induced (3 nM) calcium flux, some as mean values from multiple independent determinations. In kind it is cell-based. The text has this: • CRTH2 chemoattractant receptor-homologous molecule expressed on T helper type 2 cells • DMEM Dulbecco's modified Eagle's medium • DMSO dimethyl sulfoxide • DP PGD2 receptor • EC50 half-maximum effective concentration • Em emission • EP PGE2 receptor • Ex excitation • from Company (source) • FCS fetal calf serum • FP PGF2α receptor • HEPES 2-[4-(2-hydroxyethyl)piperazin-1-yl]ethanesulfonic acid • IC50 half-maximum inhibitory concentration • IP PGI2 receptor • MES 2-(N-morpholino)ethanesulfonic acid • Pen/Strep penicillin/streptomycin • PGD2 prostaglandin D2 • PGE2 prostaglandin E2 • PGF2α prostaglandin F2α • PGI2 prostaglandin I2 • TC tissue culture • TP thromboxane A2 receptor • Tris tris(hydroxymethyl)aminomethane • v/v volume to volume ratio (of a solution) • w/w weight to weight ratio (of a solution) B-1. In Vitro Test of Inhibition of Human FP Receptor Activity
For the characterization of test substances in respect of FP antagonism, PGF2α-induced calcium flux in FP-expressing CHEM1 cells (Millipore, HTS093C) was used.
Prior to the measurement, the medium is replaced by 30 μl of Fluo-8 AM loading buffer [calcium-free Tyrode (130 mM NaCl, 5 mM KCl, 20 mM HEPES, 1 mM MgCl2, 4.8 mM NaHCO3, pH 7.4), 2 mM CaCl2, 1× SmartBlock (from CANDOR Bioscience GmbH), 4.5 mM Probenecid, 5 μM Fluo-8 AM, 0.016% Pluronic®, 0.04% Brilliant black] and incubated at 37° C./5% CO2 for 30 minutes. […] 10 μl of the prediluted substance solution are added to the Fluo-8-laden cells and incubated at 37° C./5% CO2 for 10 minutes. The FP receptor is activated by adding 20 μl of 3 nM (final concentration) PGF2α in calcium-free Tyrode/2 mM CaCl2/0.04% Brilliant black, and the calcium flux is determined by measuring the fluorescence at ex. 470 nm/[…].
Table 1 below lists the IC50 values from this assay for individual working examples of the invention (some as mean values from multiple independent individual determinations): […]
A general note: A change in cytosolic calcium serves as a functional read-out for many receptors and channels.

Sequence of human FP receptor (P43088 whole entry): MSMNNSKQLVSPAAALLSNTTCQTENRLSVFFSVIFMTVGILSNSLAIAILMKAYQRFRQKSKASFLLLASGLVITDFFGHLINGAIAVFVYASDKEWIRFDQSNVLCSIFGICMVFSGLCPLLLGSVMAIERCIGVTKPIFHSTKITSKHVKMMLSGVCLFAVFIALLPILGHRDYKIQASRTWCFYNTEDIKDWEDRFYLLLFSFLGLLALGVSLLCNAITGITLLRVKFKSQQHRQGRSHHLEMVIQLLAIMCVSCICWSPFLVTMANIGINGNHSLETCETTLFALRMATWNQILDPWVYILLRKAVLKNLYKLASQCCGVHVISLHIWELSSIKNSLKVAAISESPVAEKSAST

`Cc1c(-c2ccccc2)nc2ccc(Br)cc2c1C(=O)NC12CCC(C(=O)O)(CC1)C(O)C2` (racemic) [Example 59, 4-{[(6-Bromo-3-methyl-2-phenylquinolin-4-yl)carbonyl]amino}-2-hydroxybicyclo[2.2.2]octane-1-carboxylic acid (racemate)]: the IC50 amounted to 435 nM.

As for `Cc1c(-c2ccccc2)nc2ccc(Cl)cc2c1C(=O)NC12CCC(C(=O)O)(CC1)CC2` [Example 2, 4-{[(6-Chloro-3-methyl-2-phenylquinolin-4-yl)carbonyl]amino}bicyclo[2.2.2]octane-1-carboxylic acid], the IC50 turned out to be 259 nM.

`Cc1c(-c2ccccc2)nc2cc(Cl)c(Cl)cc2c1C(=O)NC12CCC(C(=O)O)(CC1)CC2` [Example 3, 4-{[(6,7-Dichloro-3-methyl-2-phenylquinolin-4-yl)carbonyl]amino}bicyclo[2.2.2]octane-1-carboxylic acid]: the half-maximal inhibitory concentration (IC50) came to 142 nM.

With `Cc1c(-c2cccs2)nc2ccc(Br)cc2c1C(=O)NC12CCC(C(=O)O)(CC1)CC2` [Example 5, 4-({[6-Bromo-3-methyl-2-(2-thienyl)quinolin-4-yl]carbonyl}amino)bicyclo[2.2.2]octane-1-carboxylic acid], the IC50 came to 113 nM.

In the case of `Cc1c(-c2ccccc2F)nc2ccc(Br)cc2c1C(=O)NC12CCC(C(=O)O)(CC1)CC2` [Example 6, 4-({[6-Bromo-2-(2-fluorophenyl)-3-methylquinolin-4-yl]carbonyl}amino)bicyclo[2.2.2]octane-1-carboxylic acid], the concentration for half-maximal inhibition (IC50) stood at 240 nM.

For the compound `Cc1c(-c2cccc(F)c2)nc2ccc(Br)cc2c1C(=O)NC12CCC(C(=O)O)(CC1)CC2` [Example 7, 4-({[6-Bromo-2-(3-fluorophenyl)-3-methylquinolin-4-yl]carbonyl}amino)bicyclo[2.2.2]octane-1-carboxylic acid], the IC50 turned out to be 181 nM.

For `Cc1c(-c2ccc(F)cc2)nc2ccc(Br)cc2c1C(=O)NC12CCC(C(=O)O)(CC1)CC2` [Example 8, 4-({[6-Bromo-2-(4-fluorophenyl)-3-methylquinolin-4-yl]carbonyl}amino)bicyclo[2.2.2]octane-1-carboxylic acid], the IC50 was found to be 180 nM.

Turning to `Cc1c(-c2cc(F)cc(F)c2)nc2ccc(Br)cc2c1C(=O)NC12CCC(C(=O)O)(CC1)CC2` [Example 9, 4-({[6-Bromo-2-(3,5-difluorophenyl)-3-methylquinolin-4-yl]carbonyl}amino)bicyclo[2.2.2]octane-1-carboxylic acid], the IC50 is 386 nM.

With `Cc1c(-c2ccccc2Cl)nc2ccc(Br)cc2c1C(=O)NC12CCC(C(=O)O)(CC1)CC2` [Example 10, 4-({[6-Bromo-2-(2-chlorophenyl)-3-methylquinolin-4-yl]carbonyl}amino)bicyclo[2.2.2]octane-1-carboxylic acid], the concentration for half-maximal inhibition (IC50) stood at 128 nM.

In the case of `Cc1c(-c2cccc(Cl)c2)nc2ccc(Br)cc2c1C(=O)NC12CCC(C(=O)O)(CC1)CC2` [Example 11, 4-({[6-Bromo-2-(3-chlorophenyl)-3-methylquinolin-4-yl]carbonyl}amino)bicyclo[2.2.2]octane-1-carboxylic acid], the IC50 came out at 129 nM.

In the case of `O=C(NC12CCC(C(=O)O)(CC1)CC2)c1c(F)c(-c2ccccc2)nc2ccc(Br)cc12` [Example 12, 4-{[(6-Bromo-3-fluoro-2-phenylquinolin-4-yl)carbonyl]amino}bicyclo[2.2.2]octane-1-carboxylic acid], the IC50 was 139 nM.

As to `COc1c(-c2ccccc2)nc2ccc(Br)cc2c1C(=O)NC12CCC(C(=O)O)(CC1)CC2` [Example 13, 4-{[(6-Bromo-3-methoxy-2-phenylquinolin-4-yl)carbonyl]amino}bicyclo [2.2.2]octane-1-carboxylic acid], the IC50 is 153 nM.

For `Cc1c(-c2ccccc2)nc2ccc(I)cc2c1C(=O)NC12CCC(C(=O)O)(CC1)CC2` [Example 14, 4-{[(6-Iodo-3-methyl-2-phenylquinolin-4-yl)carbonyl]amino}bicyclo[2.2.2]octane-1-carboxylic acid], the half-maximal inhibitory concentration (IC50) turned out to be 33 nM.

As for `Cc1c(-c2ccccc2)nc2ccc(C3CC3)cc2c1C(=O)NC12CCC(C(=O)O)(CC1)CC2` [Example 15, 4-{[(6-Cyclopropyl-3-methyl-2-phenylquinolin-4-yl)carbonyl]amino}bicyclo[2.2.2]octane-1-carboxylic acid], the concentration for half-maximal inhibition (IC50) worked out at 326 nM.

As for `Cc1c(-c2ccccc2)nc2ccc(C3CCC3)cc2c1C(=O)NC12CCC(C(=O)O)(CC1)CC2` [Example 16, 4-{[(6-Cyclobutyl-3-methyl-2-phenylquinolin-4-yl)carbonyl]amino}bicyclo [2.2.2]octane-1-carboxylic acid], the half-maximal inhibitory concentration (IC50) amounted to 589 nM.

`Cc1c(-c2ccccc2)nc2ccc([Si](C)(C)C)cc2c1C(=O)NC12CCC(C(=O)O)(CC1)CC2` [Example 17, 4-({[3-Methyl-2-phenyl-6-(trimethylsilyl)quinolin-4-yl]carbonyl}amino)bicyclo[2.2.2]octane-1-carboxylic acid]: the IC50 worked out at 214 nM.

For the compound `Cc1c(-c2ccccc2)nc2ccc(C(F)F)cc2c1C(=O)NC12CCC(C(=O)O)(CC1)CC2` [Example 18, 4-({[6-(Difluoromethyl)-3-methyl-2-phenylquinolin-4-yl]carbonyl}amino)bicyclo[2.2.2]octane-1-carboxylic acid], the IC50 was 543 nM.

As for `Cc1c(-c2ccccc2)nc2ccc(OC(F)(F)F)cc2c1C(=O)NC12CCC(C(=O)O)(CC1)CC2` [Example 19, 4-({[3-Methyl-2-phenyl-6-(trifluoromethoxy)quinolin-4-yl]carbonyl}amino)bicyclo[2.2.2]octane-1-carboxylic acid], the IC50 worked out at 917 nM.

As for `Cc1c(-c2ccccc2)nc2ccc(SC(F)(F)F)cc2c1C(=O)NC12CCC(C(=O)O)(CC1)CC2` [Example 20, 4-[({3-Methyl-2-phenyl-6-[(trifluoromethyl)sulfanyl]quinolin-4-yl}carbonyl)amino]bicyclo[2.2.2]octane-1-carboxylic acid], the half-inhibitory concentration (IC50) came out at 521 nM.

Consider `Cc1c(-c2ccccc2)nc2c(C)cc(Br)cc2c1C(=O)NC12CCC(C(=O)O)(CC1)CC2` [Example 21, 4-{[(6-Bromo-3,8-dimethyl-2-phenylquinolin-4-yl)carbonyl]amino}bicyclo[2.2.2]octane-1-carboxylic acid], for which the IC50 was found to be 214 nM.

As to `Cc1c(-c2ccccc2)nc2c(Cl)cc(Cl)cc2c1C(=O)NC12CCC(C(=O)O)(CC1)CC2` [Example 22, 4-{[(6,8-Dichloro-3-methyl-2-phenylquinolin-4-yl)carbonyl]amino}bicyclo[2.2.2]octane-1-carboxylic acid], the IC50 worked out at 677 nM.

On to `Cc1cc2nc(-c3ccccc3)c(C)c(C(=O)NC34CCC(C(=O)O)(CC3)CC4)c2cc1C` [Example 23], for which the IC50 was 306 nM.

For `Cc1ccccc1-c1nc2ccc(Br)cc2c(C(=O)NC23CCC(C(=O)O)(CC2)CC3)c1C` [Example 24, 4-({[6-Bromo-3-methyl-2-(2-methylphenyl)quinolin-4-yl]carbonyl}amino)bicyclo[2.2.2]octane-1-carboxylic acid], the IC50 was found to be 129 nM.

On to `Cc1c(-c2c(F)cccc2F)nc2ccc(Br)cc2c1C(=O)NC12CCC(C(=O)O)(CC1)CC2` [Example 25, 4-({[6-Bromo-2-(2,6-difluorophenyl)-3-methylquinolin-4-yl]carbonyl}amino)bicyclo[2.2.2]octane-1-carboxylic acid], for which the IC50 was 494 nM.

As to `COc1cccc(-c2nc3ccc(Br)cc3c(C(=O)NC34CCC(C(=O)O)(CC3)CC4)c2C)c1` [Example 26, 4-({[6-Bromo-2-(3-methoxyphenyl)-3-methylquinolin-4-yl]carbonyl}amino)bicyclo[2.2.2]octane-1-carboxylic acid], the half-maximal inhibitory concentration (IC50) came to 114 nM.

As to `CSc1c(-c2ccccc2)nc2ccc(Br)cc2c1C(=O)NC12CCC(C(=O)O)(CC1)CC2` [Example 27, 4-({[6-Bromo-3-(methylsulfanyl)-2-phenylquinolin-4-yl]carbonyl}amino)bicyclo[2.2.2]octane-1-carboxylic acid], the concentration for half-maximal inhibition (IC50) was found to be 74 nM.

Turning to `CCc1c(-c2ccccc2)nc2ccc(Br)cc2c1C(=O)NC12CCC(C(=O)O)(CC1)CC2` [Example 28, 4-{[(6-Bromo-3-ethyl-2-phenylquinolin-4-yl)carbonyl]amino}bicyclo[2.2.2]octane-1-carboxylic acid], the IC50 was found to be 220 nM.

For the compound `O=C(NC12CCC(C(=O)O)(CC1)CC2)c1c(C2CC2)c(-c2ccccc2)nc2ccc(Br)cc12` [Example 29, 4-{[(6-Bromo-3-cyclopropyl-2-phenylquinolin-4-yl)carbonyl]amino}bicyclo[2.2.2]octane-1-carboxylic acid], the half-maximal inhibitory concentration (IC50) came to 51 nM.

As a reminder, the IC50 is the concentration at which inhibition is half-maximal.
